Results published in US9284345B2 (priority 2007, dated 2016).
Where “and” joins values, the source holds several entries; their conditions need not be identical. Equal values may be shown once. Read-outs that look alike come from different tables or passages of the source.

Key:
[1] = target: T1, Human Androgen Receptor (Homo sapiens, UniProt P10275); type: binding
T1 construct: expressed in transfected cells; host or cells: HEK-293 cells stably transfected with the pCMVneo-hAR plasmid (G-418 selection); cytosol used
T1 sequence (P10275 1-920): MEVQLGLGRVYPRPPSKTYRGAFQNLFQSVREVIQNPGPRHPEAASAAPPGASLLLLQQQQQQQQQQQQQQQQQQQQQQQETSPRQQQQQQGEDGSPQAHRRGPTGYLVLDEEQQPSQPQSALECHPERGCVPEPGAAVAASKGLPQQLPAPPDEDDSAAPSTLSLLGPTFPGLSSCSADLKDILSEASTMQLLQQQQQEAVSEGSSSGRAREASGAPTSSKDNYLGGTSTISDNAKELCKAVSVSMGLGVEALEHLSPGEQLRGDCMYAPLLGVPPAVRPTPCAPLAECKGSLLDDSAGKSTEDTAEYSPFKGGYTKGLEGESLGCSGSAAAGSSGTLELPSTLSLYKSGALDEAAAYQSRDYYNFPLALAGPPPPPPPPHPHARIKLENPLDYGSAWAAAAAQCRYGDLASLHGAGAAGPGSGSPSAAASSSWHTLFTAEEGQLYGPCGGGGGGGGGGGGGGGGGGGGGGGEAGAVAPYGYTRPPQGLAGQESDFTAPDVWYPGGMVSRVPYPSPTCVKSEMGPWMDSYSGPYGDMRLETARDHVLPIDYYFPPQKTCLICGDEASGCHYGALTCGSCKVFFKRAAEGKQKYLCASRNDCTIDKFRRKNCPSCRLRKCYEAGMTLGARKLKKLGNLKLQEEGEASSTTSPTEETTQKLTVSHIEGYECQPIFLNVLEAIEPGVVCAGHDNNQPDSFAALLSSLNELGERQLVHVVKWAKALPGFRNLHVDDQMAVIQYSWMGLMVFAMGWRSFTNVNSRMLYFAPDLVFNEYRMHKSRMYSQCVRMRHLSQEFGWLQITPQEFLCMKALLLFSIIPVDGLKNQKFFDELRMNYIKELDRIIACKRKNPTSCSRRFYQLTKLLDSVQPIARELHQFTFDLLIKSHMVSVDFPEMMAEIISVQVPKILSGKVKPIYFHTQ

[2] = test system: Shionogi mouse mammary carcinoma cells; assay: cells; type: cell-based; settings: for % of inh of DHT at 10^−7 M (Basal = 100%): 0.0003 µM; for Ki: read-out: Shionogi cells Antiandrogenic activity Ki
[3] = test system: Immature Rat CX + DHT; assay: animal or person; type: in vivo; settings: po; for change in vivo at 0.1 mg: Rattus norvegicus, 168 h
[4] = test system: Intact Rat; assay: In vivo activity in intact rat (organ and muscle weight)
[5] = test system: Immature Rat CX; settings: for In Vivo Agonist % Change vs CX (DHT = +100%) SV / In Vivo Agonist % Change vs CX (DHT = +100%) VP: po
[6] = read-out: In Vivo Antagonist % Change vs DHT (CX = −100%) SV
[7] = read-out: In Vivo Antagonist % Change vs DHT (CX = −100%) VP

Compound	Human Androgen Receptor Binding RBA (%) R1881 = 100% [1]	% of stim of basal at 10^−7M (% over basal) [2]	% of stim of basal at 10^−7 M (DHT = 100%) [2]	% of inh of DHT at 10^−7 M (Basal = 100%) [2]	In Vivo Anti-A Rat CX + DHT % change vs DHT (CX CONT = −100%) SV ([3]; rat, in vivo)	In Vivo Anti-A Rat CX + DHT % change vs DHT (CX CONT = −100%) VP ([3]; rat, in vivo)	In Vivo Intact Rat % change vs Intact CONT (Intact CONT = +100%; CX CONT = 0%) Bulbo ([4]; rat, in vivo)	In Vivo Intact Rat % change vs Intact CONT (Intact CONT = +100%; CX CONT = 0%) SZ ([4]; rat, in vivo)	In Vivo Intact Rat % change vs Intact CONT (Intact CONT = +100%; CX CONT = 0%) VP ([4]; rat, in vivo)	In Vivo Agonist Rat CX % change vs CX (DHT CONT = +100%) Bulbo [5]	In Vivo Agonist Rat CX % change vs CX (DHT CONT = +100%) SV [5]	In Vivo Agonist Rat CX % change vs CX (DHT CONT = +100%) VP [5]	Shionogi cells Antiandrogenic activity Ki OH-Flu/Ki compound [2]	Ki [2] [nM]	change in vivo at 0.1 mg [3, 6] [%]	change in vivo at 0.1 mg [3, 7] [%]	In Vivo Agonist % Change vs CX (DHT = +100%) SV [5]	In Vivo Agonist % Change vs CX (DHT = +100%) VP [5] [%]	further results
CC1CC2(C)C(CCC2(O)Cc2cc[n+]([O-])cc2F)C2CCc3c(ccc(C#N)c3F)C12 (stereo not shown) [EM-6595]	13%	+117 ± 11%	+43 ± 13%	−58 ± 13%	[−74 ± 3] %	[−56 ± 5] %	+162 ± 9%	+40 ± 3%	+67 ± 10%	+97 ± 9%	+14 ± 1%	+28 ± 3%							
C[C@]12CCC3c4ccc(C#N)c(F)c4CCC3C1CC[C@@]2(O)Cc1ccncc1F (stereo partly shown) [EM-8455]	9.1%												3.1	1.9	-85 ± 4	-49 ± 3	+1 ± 2%	0	
Cc1cnccc1C[C@]1(O)CCC2C3CCc4c(ccc(C#N)c4F)C3CC[C@@]21C (stereo partly shown) [EM-8504]	6.1%												7.5	2.5	-75 ± 2	-51 ± 13			
C[C@]12CCC3c4ccc(C#N)c(F)c4CCC3C1CC[C@@]2(O)Cc1ccncc1Cl (stereo partly shown) [EM-8632]	47%												2.1	4.1					In Vivo Antagonist % Change vs DHT (CX = −100%) SV ([3]; rat, in vivo): −74 ± 3%; In Vivo Antagonist % Change vs DHT (CX = −100%) VP ([3]; rat, in vivo): −43 ± 6%
C[C@]12CCC3c4ccc(C#N)c(F)c4CCC3C1CC[C@@]2(O)Cc1cc[n+]([O-])cc1Cl (stereo partly shown) [EM-8633]	2.3%													0.8	-83	-42 ± 5	1%	0	
CC[C@H]1C[C@@]2(C)C(CC[C@@]2(O)Cc2ccncc2)C2CCc3c(ccc(C#N)c3F)C21 (stereo partly shown) [EM-8986]	508%	+21%	+9%	+44%	−25 ± 4%	−24 ± 3%	+241 ± 27%	+98 ± 7%	+76 ± 11%	+149 ± 13%	+24 ± 3%	+35 ± 3%							In Vivo Anti-A Rat CX + DHT % change vs DHT (CX CONT = −100%) Bulbo ([3]; rat, in vivo): +74 ± 13%
CCC1CC2(C)C(CCC2(O)Cc2cc[n+]([O-])cc2)C2CCc3c(ccc(C#N)c3F)C12 (stereo not shown) [EM-8987]	26%	+73%	+74%	+35%			+292 ± 30%	+110 ± 13%	+84 ± 4%	+118 ± 10%	+25 ± 5%	+56 ± 11%							
CC[C@H]1C[C@@]2(C)C(CC[C@@]2(O)Cc2ccncc2F)C2CCc3c(ccc(C#N)c3F)C21 (stereo partly shown) [EM-9016]	2250% and 2250 ± 570%	+45%	+39%		−39 ± 5%	−44 ± 3%		+44 ± 6%		+66 ± 25%	+17 ± 1%	+13 ± 2%							inhibition at 0.0003 µM ([2]; Mus musculus, read-out: % of inh of DHT at 10^−7 M (Basal = 100%)): 46%; In Vivo Anti-A Rat CX + DHT % change vs DHT (CX CONT = −100%) Bulbo ([3]; rat, in vivo): +10 ± 9%; In Vivo Intact Rat % change vs Intact CONT (Intact CONT = +100%; CX CONT = 0%) Bulbo ([4]; 0.1 mg/rat/os/ID, bulbocavernosus muscles weight): +108 ± 21%; In Vivo Intact Rat % change vs Intact CONT (Intact CONT = +100%; CX CONT = 0%) VP ([4]; 0.1 mg/rat/os/ID, prostate weight): +53 ± 6%
Cc1c(C#N)ccc2c1CCC1C2CCC2(C)C1CCCC2(O)Cc1cc[n+]([O-])cc1 (stereo not shown) [EM-9140]	1.4%												11	1.2			0%	0	
